Assay results: the supplement of paper PMC10307832

Experiments:
Test in all cases: relative viability (nuclei count vs DMSO), 5 days (fraction); higher = more cells survive
[1] = compound: C[C@]12O[C@H](C[C@]1(O)CO)n1c3ccccc3c3c4c(c5c6ccccc6n2c5c31)CNC4=O [Lestaurtinib] + Cc1nc(NC(=O)N2CCC[C@H]2C(N)=O)sc1-c1ccnc(C(C)(C)C(F)(F)F)c1 [Alpelisib] (partner 2 µM)
In short: (§1)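 Cells from lung cancer lines were seeded into 1536-well plates and, one day later, dosed by pin tool. Treatments were either a single drug or a fixed dose of an anchor drug with five library-drug doses (not always all listed) in √10 steps. After 5 days, nuclei were stained in a one-step fixation (final 0.05% Triton X-100, 1% formaldehyde, 1 ug/ml Hoechst) and counted on 4× images, and relative viability is the treated-to-vehicle nuclei ratio, as the median of duplicate plates.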

[2] = compound: C1/C(=C\C2=CC=CS2)/C(=O)/C(=C/C3=CC=CS3)/C1 + COc1cccc2cc(-c3nc([C@H]4CC[C@H](C(=O)O)CC4)n4ncnc(N)c34)[nH]c12 [OSI-027] (partner 0.5 µM)
In short: as §1

[3] = compound: C1/C(=C\C2=CC=CS2)/C(=O)/C(=C/C3=CC=CS3)/C1 + O=C(CCCCCCC(=O)Nc1ccccc1)NO [Vorinostat] (partner 1 µM)
In short: as §1

[4] = compound: C1=CC(=CC=C1C2=CC(=C(S2)NC(=O)N)C(=O)N)F [TPCA-1] + COc1cccc2cc(-c3nc([C@H]4CC[C@H](C(=O)O)CC4)n4ncnc(N)c34)[nH]c12 [OSI-027] (partner 0.5 µM)
In short: as §1

Cell Line | relative viability ([1]; first compound 0.005 µM) | relative viability ([1]; first compound 0.01581 µM) | relative viability ([1]; first compound 0.05 µM) | relative viability ([1]; first compound 0.1581 µM) | relative viability ([1]; first compound 0.5 µM) | relative viability ([2]; first compound 0.2 µM) | relative viability ([2]; first compound 0.6325 µM) | relative viability ([2]; first compound 2 µM) | relative viability ([2]; first compound 6.325 µM) | relative viability ([2]; first compound 20 µM) | relative viability ([3]; first compound 0.2 µM) | relative viability ([3]; first compound 0.6325 µM) | relative viability ([3]; first compound 2 µM) | relative viability ([3]; first compound 6.325 µM) | relative viability ([3]; first compound 20 µM) | relative viability ([4]; first compound 0.04 µM) | relative viability ([4]; first compound 0.1265 µM) | relative viability ([4]; first compound 0.4 µM) | relative viability ([4]; first compound 1.265 µM) | relative viability ([4]; first compound 4 µM)
NCI-H2170 | 0.698 | 0.707 | 0.592 | 0.699 | 0.404 | 0.713 | 0.728 | 0.77 | 0.416 | 0.785 | 0.898 | 0.814 | 0.787 | 0.728 | 0.766 | 0.789 | 0.641 | 0.716 | 0.584 | 0.396
HCC-366 | 0.477 | 0.438 | 0.388 | 0.287 | 0.209 | 1.13 | 1.01 | 1.11 | 0.744 | 0.836 | 0.41 | 0.381 | 0.373 | 0.324 | 0.425 | 1.07 | 0.8 | 0.914 | 0.52 | 0.0324
NCI-H2347 | 1.1 | 1.22 | 0.91 | 0.573 | 0.606 | 0.482 | 0.391 | 0.429 |  | 0.389 | 0.627 | 0.561 | 0.601 | 0.61 | 0.667 | 0.442 | 0.483 | 0.43 | 0.346 | 0.518
COR-L 105 | 1.07 | 0.926 | 0.773 | 0.583 | 0.248 | 0.679 | 0.849 | 0.781 |  | 0.632 | 0.653 | 0.969 | 0.852 | 0.391 | 0.669 | 0.646 | 0.602 | 0.707 | 0.649 | 0.396
201T | 1.04 | 1.03 | 1.02 | 0.933 | 0.693 | 0.691 | 0.753 | 0.82 | 0.662 | 0.69 | 0.965 | 0.951 | 1.07 | 0.728 | 0.935 | 0.781 | 0.751 | 0.782 | 0.669 | 0.484
NCI-H2126 | 0.785 | 0.746 | 0.608 | 0.681 | 0.478 | 0.74 | 0.645 | 0.711 | 0.598 | 0.774 | 0.742 | 0.774 | 0.809 | 0.717 | 0.781 | 0.623 | 0.961 | 0.786 | 0.685 | 0.616
NCI-H1623 |  |  |  |  |  | 0.455 | 0.465 | 0.445 | 0.434 | 0.405 |  |  |  |  |  | 0.497 | 0.509 | 0.484 | 0.514 | 0.389
IA-LM | 0.967 | 0.964 | 1.13 | 1.05 | 0.28 |  |  |  |  |  | 0.959 | 1.09 | 1.01 | 0.885 | 0.852 |  |  |  |  | 
NCI-H1792 | 0.858 | 0.875 | 0.516 | 0.429 | 0.209 | 0.84 | 0.619 | 0.754 | 0.694 | 0.67 |  |  |  |  |  | 0.701 | 0.653 | 0.696 | 0.618 | 0.564
SW 900 |  |  |  |  |  | 0.63 | 0.492 | 0.612 | 0.531 | 0.796 | 0.525 | 0.485 | 0.569 | 0.59 | 0.558 | 0.705 | 0.576 | 0.768 | 0.463 | 0.475
NCI-H1299 | 1.14 | 1.05 | 0.559 | 0.614 | 0.713 |  |  |  |  |  |  |  |  |  |  |  |  |  |  | 
NCI-H1563 | 0.88 | 0.954 | 0.944 | 0.865 | 0.813 | 0.774 | 0.787 | 0.717 | 0.729 | 0.773 |  |  |  |  |  | 0.784 | 0.766 | 0.827 | 0.712 | 0.688
NCI-H1650 |  |  |  |  |  | 0.727 | 0.713 | 0.743 | 0.544 | 0.733 | 0.49 | 0.44 | 0.796 | 0.56 | 0.498 | 0.639 |  | 0.682 | 0.798 | 0.531
Calu-6 | 1.05 | 0.873 | 0.501 | 0.381 | 0.164 |  |  |  |  |  |  |  |  |  |  |  |  |  |  | 
NCI-H1703 | 0.293 | 0.288 | 0.283 | 0.2 | 0.117 |  |  |  |  |  |  |  |  |  |  |  |  |  |  | 
EBC-1 | 0.851 | 0.948 | 0.658 | 0.624 | 0.298 |  |  |  |  |  |  |  |  |  |  |  |  |  |  | 
NCI-H2342 |  |  |  |  |  | 0.626 | 0.644 | 0.741 | 0.52 | 0.607 | 0.667 | 0.997 | 0.85 | 0.757 | 0.683 | 0.566 | 0.537 | 0.536 | 0.555 | 0.514
ChaGo-K-1 |  |  |  |  |  | 0.549 | 0.59 | 0.588 | 0.491 | 0.268 | 0.761 | 0.749 | 0.703 | 0.511 | 0.254 | 0.652 | 0.518 | 0.617 | 0.577 | 0.276
NCI-H1648 |  |  |  |  |  | 0.282 | 0.269 | 0.307 |  | 0.258 | 0.435 | 0.408 | 0.603 | 0.366 | 0.297 | 0.266 | 0.244 | 0.247 | 0.208 | 0.257
NCI-H522 |  |  |  |  |  | 0.793 | 0.715 | 0.841 | 0.518 | 0.727 | 0.967 | 0.911 | 0.893 | 1.01 | 0.909 | 0.744 | 0.721 | 0.843 | 0.837 | 0.643
A549 | 0.802 | 0.638 | 0.518 | 0.263 | 0.0616 |  |  |  |  |  |  |  |  |  |  |  |  |  |  | 
